Mortality and effect (mortality or growth inhibition) data for seven molecules are collected here from US20220389000A1, “PESTICIDALLY ACTIVE CYCLIC AMINE COMPOUNDS” (SYNGENTA CROP PROTECTION AG, priority 2019, published 2022).

For assay [1], the system named is Tetranychus urticae (Two-Spotted Spider Mite). Nature of the assay: Example B4: Tetranychus urticae (two-spotted spider mite), feeding/contact activity, sprayed bean leaf discs. The format is in vivo. The note with it: foliar, 192 h, application rate 200 ppm, mixed population (mobile stages) on sprayed bean leaf discs, 8 days after infestation. How it is done:
Example B4: Tetranychus urticae (Two-Spotted Spider Mite): Feeding/Contact Activity
Bean leaf discs on agar in 24-well microtiter plates were sprayed with aqueous test solutions prepared from 10'000 ppm DMSO stock solutions. After drying the leaf discs were infested with a mite population of mixed ages. The samples were assessed for mortality on mixed population (mobile stages) 8 days after infestation.

Assay [2] deals with Plutella xylostella (Diamond Back Moth). Nature of the assay: Example B3: Plutella xylostella (diamond back moth), treated artificial diet, eggs. The format is in vivo. The conditions noted are these: 192 h, application rate 200 ppm, eggs on treated artificial diet, 8 days after infestation, vs untreated, read-out: effect in at least one of the two categories (mortality or growth inhibition). Here is the method: Example B3: Plutella xylostella (Diamond Back Moth)
24-well microtiter plates with artificial diet were treated with aqueous test solutions prepared from 10'000 ppm DMSO stock solutions by pipetting. After drying, Plutella eggs were pipetted through a plastic stencil onto a gel blotting paper and the plate was closed with it. The samples were assessed for mortality and growth inhibition in comparison to untreated samples 8 days after infestation.
The following compounds gave an effect of at least 80% in at least one of the two categories (mortality or growth inhibition) at an application rate of 200 ppm: […]

Structures are written as SMILES. Where only a bound is given, the exact number is not on record here.

As for `Cc1nc(C2CCN(C(=O)c3cc(C(N)=S)c(OCc4ccc(C(F)(F)F)cc4)nc3C(F)(F)F)CC2)no1` [P6.1, 5-[4-(5-Methyl-1,2,4-oxadiazol-3-yl)piperidine-1-carbonyl]-6-(trifluoromethyl)-2-[[4-(trifluoromethyl)phenyl]methoxy]pyridine-3-carbothioamide], the mortality (commonly the percentage killed) at 200 ppm in assay [1] is at least 80%.
The molecule `Cc1nc(C2CCN(C(=O)c3cc(C#N)c(OCC4CC4(Cl)Cl)nc3C(F)(F)F)CC2)no1` (stereo not drawn) [P4.1, 2-[(2,2-Dichlorocyclopropyl)methoxy]-5-[4-(5-methyl-1,2,4-oxadiazol-3-yl)piperidine-1-carbonyl]-6-(trifluoromethyl)pyridine-3-carbonitrile] showed a mortality at 200 ppm in assay [1] of at least 80%. Also, in assay [2], the effect (mortality or growth inhibition) at 200 ppm is at least 80%.
Molecule `N#Cc1cc(C(=O)N2CCN(c3ncc(Cl)cc3Cl)CC2)c(C(F)(F)F)nc1OCc1ccc(C(F)(F)F)cc1` [P2.1, 5-[4-(3,5-dichloro-2-pyridyl)piperazine-1-carbonyl]-6-(trifluoromethyl)-2-[[4-(trifluoromethyl)phenyl]methoxy]pyridine-3-carbonitrile] had a mortality at 200 ppm in assay [1] of at least 80%. The effect (mortality or growth inhibition) at 200 ppm in assay [2] was at least 80%.
Turning to `Cc1nc(C2CCN(C(=O)c3cc(C#N)c(OCc4ccc(C(F)(F)F)cc4)nc3C(F)(F)F)CC2)no1` [P1.1, 5-[4-(5-Methyl-1,2,4-oxadiazol-3-yl)piperidine-1-carbonyl]-6-(trifluoromethyl)-2-[[4-(trifluoromethyl)phenyl]methoxy]pyridine-3-carbonitrile], in assay [1], the mortality at 200 ppm was at least 80%.
Still for that read-out and setting: in the case of `Cc1nc(C2CCN(C(=O)c3cc(C#N)c(OCc4ccc(C(F)(F)F)cc4)nc3C)CC2)no1` [P1.43, 6-Methyl-5-[4-(5-methyl-1,2,4-oxadiazol-3-yl)piperidine-1-carbonyl]-2-[[4-(trifluoromethyl)phenyl]methoxy]pyridine-3-carbonitrile] it was at least 80%; in that of `Cc1nc(C2CCN(C(=O)c3cc(C#N)c(OCc4ccc(C(F)(F)F)cc4)nc3C(F)F)CC2)no1` [P1.48, 6-(Difluoromethyl)-5-[4-(5-methyl-1,2,4-oxadiazol-3-yl)piperidine-1-carbonyl]-2-[[4-(trifluoromethyl)phenyl]methoxy]pyridine-3-carbonitrile], at least 80%; in that of `CC[S+]([O-])CC1CCN(C(=O)c2cc(C#N)c(OCc3ccc(C(F)(F)F)cc3)nc2C(F)(F)F)CC1` (stereo not drawn) [P3.4, 5-[4-(Ethylsulfinylmethyl)piperidine-1-carbonyl]-6-(trifluoromethyl)-2-[[4-(trifluoromethyl)phenyl]methoxy]pyridine-3-carbonitrile], at least 80%.
